What was measured:
SNB-19 = details: single dose 10 μM; CNS cancer
HT29 = details: single dose 10 μM; colon cancer
[1] = tested on: NCI 60 cancer cell line panel; test: NCI 60 full panel summary; details: single dose 10 μM; mean over the NCI 60 panel
CAKI-1 = details: single dose 10 μM; renal carcinoma
COLO 205 = details: single dose 10 μM; colon cancer
CCRF-CEM = details: single dose 10 μM; leukemia
EKVX = details: single dose 10 μM; non-small lung carcinoma
MALME-3M = details: single dose 10 μM; melanoma
OVCAR-3 = details: single dose 10 μM; ovarian carcinoma
UACC-257 = details: single dose 10 μM; melanoma
PC-3 = details: single dose 10 μM; prostate carcinoma
NCI-H460 = details: single dose 10 μM; non-small lung carcinoma
K-562 = details: single dose 10 μM; leukemia
UACC-62 = details: single dose 10 μM; melanoma
OVCAR-8 = details: single dose 10 μM; ovarian carcinoma
SNB-75 = details: single dose 10 μM; CNS cancer
SW-620 = details: single dose 10 μM; colon cancer
OVCAR-4 = details: single dose 10 μM; ovarian carcinoma
A549/ATCC = details: single dose 10 μM; non-small lung carcinoma
HOP-62 = details: single dose 10 μM; non-small lung carcinoma
IGROV1 = details: single dose 10 μM; ovarian carcinoma
SF-539 = details: single dose 10 μM; CNS cancer
NCI-H226 = details: single dose 10 μM; non-small lung carcinoma
HOP-92 = details: single dose 10 μM; non-small lung carcinoma
ACHN = details: single dose 10 μM; renal carcinoma
A498 = details: single dose 10 μM; renal carcinoma
MCF7 = details: single dose 10 μM; breast carcinoma
DU-145 = details: single dose 10 μM; prostate carcinoma
UO-31 = details: single dose 10 μM; renal carcinoma
SK-MEL-28 = details: single dose 10 μM; melanoma
RXF 393 = details: single dose 10 μM; renal carcinoma
HCT-15 = details: single dose 10 μM; colon cancer
T-47D = details: single dose 10 μM; breast carcinoma
NCI-H522 = details: single dose 10 μM; non-small lung carcinoma
M14 = details: single dose 10 μM; melanoma
SF-295 = details: single dose 10 μM; CNS cancer
MOLT-4 = details: single dose 10 μM; leukemia
TK-10 = details: single dose 10 μM; renal carcinoma
SR = details: single dose 10 μM; leukemia
U251 = details: single dose 10 μM; CNS cancer
HL-60(TB) = details: single dose 10 μM; leukemia
MDA-MB-468 = details: single dose 10 μM; breast carcinoma
SF-268 = details: single dose 10 μM; CNS cancer
SK-MEL-2 = details: single dose 10 μM; melanoma
KM12 = details: single dose 10 μM; colon cancer
HCT-116 = details: single dose 10 μM; colon cancer
OVCAR-5 = details: single dose 10 μM; ovarian carcinoma
SN12C = details: single dose 10 μM; renal carcinoma
RPMI-8226 = details: single dose 10 μM; leukemia
SK-OV-3 = details: single dose 10 μM; ovarian carcinoma
HCC-2998 = details: single dose 10 μM; colon cancer
786–0 = details: single dose 10 μM; renal carcinoma
LOX IMVI = details: single dose 10 μM; melanoma
SK-MEL-5 = details: single dose 10 μM; melanoma
NCI-H23 = details: single dose 10 μM; non-small lung carcinoma
MDA-MB-435 = details: single dose 10 μM; melanoma
NCI/ADR-RES = details: single dose 10 μM; ovarian carcinoma
BT-549 = details: single dose 10 μM; breast carcinoma

Molecule: COc1ccc(C2=NNC(c3cn(-c4ccccc4)nc3-c3cc4ccccc4o3)C2)cc1OC (stereo not drawn) [3c, 3-(Benzofuran-2-yl)-4-(3-(3,4-dimethoxyphenyl)-4,5-dihydro-1H-pyrazol-5-yl)-1-phenyl-1H-pyrazole]
- GI% (SNB-19): 59.83%
- GI% (HT29): 64.31%
- Mean GI% [1]: 60.71%
- GI% (CAKI-1): 76.85%
- GI% (COLO 205): 47.04%
- GI% (CCRF-CEM): 84.09%
- GI% (EKVX): 57.67%
- GI% (MALME-3M): 30.46%
- GI% (OVCAR-3): 65.22%
- GI% (UACC-257): 45.64%
- GI% (PC-3): 66.98%
- GI% (NCI-H460): 81.94%
- GI% (K-562): 87.48%
- GI% (UACC-62): 62.47%
- GI% (OVCAR-8): 63.70%
- GI% (SNB-75): 58.00%
- GI% (SW-620): 47.04%
- GI% (OVCAR-4): 58.72%
- GI% (A549/ATCC): 57.50%
- GI% (HOP-62): 33.71%
- GI% (IGROV1): 61.79%
- GI% (SF-539): 56.77%
- GI% (NCI-H226): 68.39%
- GI% (HOP-92): 75.25%
- GI% (ACHN): 74.84%
- GI% (A498): 7.63%
- GI% (MCF7): 77.82%
- GI% (DU-145): 58.05%
- GI% (UO-31): 80.36%
- GI% (SK-MEL-28): 35.60%
- GI% (RXF 393): 36.89%
- GI% (HCT-15): 49.94%
- GI% (T-47D): 81.51%
- GI% (NCI-H522): 51.41%
- GI% (M14): 63.24%
- GI% (SF-295): 58.47%
- GI% (MOLT-4): 80.97%
- GI% (TK-10): 42.27%
- GI% (SR): 77.33%
- GI% (U251): 60.18%
- GI% (HL-60(TB)): 88.80%
- GI% (MDA-MB-468): 78.06%
- GI% (SF-268): 61.15%
- GI% (SK-MEL-2): 47.50%
- GI% (KM12): 68.12%
- GI% (HCT-116): 74.37%
- GI% (OVCAR-5): 41.14%
- GI% (SN12C): 63.01%
- GI% (RPMI-8226): 88.22%
- GI% (SK-OV-3): 32.78%
- GI% (HCC-2998): 64.60%
- GI% (786–0): 52.36%
- GI% (LOX IMVI): 65.24%
- GI% (SK-MEL-5): 74.73%
- GI% (NCI-H23): 53.25%
- GI% (MDA-MB-435): 65.91%

Molecule: 3-(5-(Benzofuran-2-yl)-1-phenyl-1H-pyrazol-3-yl)-1-(3,4-dimethoxyphenyl)prop-2-en-1-one [2c]
- GI% (SNB-19): 4.96%
- Mean GI% [1]: 2.16%
- GI% (CAKI-1): 10.30%
- GI% (CCRF-CEM): 8.09%
- GI% (EKVX): 0.81%
- GI% (MALME-3M): 5.86%
- GI% (PC-3): 7.06%
- GI% (K-562): 5.48%
- GI% (NCI/ADR-RES): 1.79%
- GI% (UACC-62): 4.68%
- GI% (HOP-62): 4.42%
- GI% (SF-539): 4.21%
- GI% (NCI-H226): 1.83%
- GI% (HOP-92): 13.94%
- GI% (ACHN): 0.70%
- GI% (A498): 6.80%
- GI% (MCF7): 9.78%
- GI% (UO-31): 15.32%
- GI% (HCT-15): 1.66%
- GI% (T-47D): 9.23%
- GI% (NCI-H522): 1.92%
- GI% (M14): 1.79%
- GI% (SF-295): 9.48%
- GI% (MOLT-4): 4.38%
- GI% (TK-10): 6.22%
- GI% (SR): 17.15%
- GI% (HL-60(TB)): 6.49%
- GI% (MDA-MB-468): 0.93%
- GI% (SF-268): 1.66%
- GI% (HCT-116): 0.17%
- GI% (OVCAR-5): 0.00%
- GI% (SN12C): 10.90%
- GI% (RPMI-8226): 4.63%
- GI% (SK-OV-3): 11.15%
- GI% (786–0): 2.44%
- GI% (SK-MEL-5): 1.65%
- GI% (BT-549): 16.27%

From publication PMC12486440, “Design, synthesis, and in silico studies of new benzofuran–pyrazole hybrids as multi-kinase inhibitors with potential antiproliferative activity” (RSC Advances, 2025)
